Reference: patent US12187699B2, “GSPT1 compounds and methods of use of the novel compounds” (BRISTOL-MYERS SQUIBB COMPANY, priority 2022, dated 2025)

target: T1, ePL-tagged GSPT1 (Homo sapiens, UniProt P15170+Q96SW2); assay: GSPT1 DiscoverX Degradation Assay; type: cell-based; details: DF15 multiple myeloma cells expressing ePL-tagged GSPT1; twenty hours; minimum of percent of control curve (Ataluren control Y constant=0, DMSO control = Y max)
T1 construct: expressed in transfected cells; host or cells: DF15 multiple myeloma cells
T1 sequence (P15170 whole entry): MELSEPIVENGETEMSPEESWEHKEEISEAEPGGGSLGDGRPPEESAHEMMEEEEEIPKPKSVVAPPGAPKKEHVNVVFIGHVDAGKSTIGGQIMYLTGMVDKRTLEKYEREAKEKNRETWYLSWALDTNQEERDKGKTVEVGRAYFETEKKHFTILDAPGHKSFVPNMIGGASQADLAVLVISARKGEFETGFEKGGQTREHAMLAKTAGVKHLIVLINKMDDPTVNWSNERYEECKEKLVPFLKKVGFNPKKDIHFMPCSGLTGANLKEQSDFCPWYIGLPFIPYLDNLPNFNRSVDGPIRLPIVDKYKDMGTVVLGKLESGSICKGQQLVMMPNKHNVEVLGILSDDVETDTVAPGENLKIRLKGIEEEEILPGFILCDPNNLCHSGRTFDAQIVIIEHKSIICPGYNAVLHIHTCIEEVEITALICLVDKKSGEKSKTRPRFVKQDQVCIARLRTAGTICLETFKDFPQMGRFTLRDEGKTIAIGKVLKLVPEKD
T1 sequence (Q96SW2 whole entry): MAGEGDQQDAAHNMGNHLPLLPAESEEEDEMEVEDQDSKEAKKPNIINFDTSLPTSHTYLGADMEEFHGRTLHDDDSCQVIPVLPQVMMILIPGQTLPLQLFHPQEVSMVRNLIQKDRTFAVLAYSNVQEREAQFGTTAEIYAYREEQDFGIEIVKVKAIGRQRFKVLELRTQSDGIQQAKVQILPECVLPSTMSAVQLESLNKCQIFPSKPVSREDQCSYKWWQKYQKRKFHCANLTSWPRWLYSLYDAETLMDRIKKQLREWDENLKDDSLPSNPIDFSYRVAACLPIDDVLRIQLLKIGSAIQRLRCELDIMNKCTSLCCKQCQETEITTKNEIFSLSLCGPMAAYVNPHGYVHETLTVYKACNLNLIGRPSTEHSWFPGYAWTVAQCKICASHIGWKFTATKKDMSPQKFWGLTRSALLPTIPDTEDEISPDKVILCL
T1 sequence (Q16531 whole entry partner): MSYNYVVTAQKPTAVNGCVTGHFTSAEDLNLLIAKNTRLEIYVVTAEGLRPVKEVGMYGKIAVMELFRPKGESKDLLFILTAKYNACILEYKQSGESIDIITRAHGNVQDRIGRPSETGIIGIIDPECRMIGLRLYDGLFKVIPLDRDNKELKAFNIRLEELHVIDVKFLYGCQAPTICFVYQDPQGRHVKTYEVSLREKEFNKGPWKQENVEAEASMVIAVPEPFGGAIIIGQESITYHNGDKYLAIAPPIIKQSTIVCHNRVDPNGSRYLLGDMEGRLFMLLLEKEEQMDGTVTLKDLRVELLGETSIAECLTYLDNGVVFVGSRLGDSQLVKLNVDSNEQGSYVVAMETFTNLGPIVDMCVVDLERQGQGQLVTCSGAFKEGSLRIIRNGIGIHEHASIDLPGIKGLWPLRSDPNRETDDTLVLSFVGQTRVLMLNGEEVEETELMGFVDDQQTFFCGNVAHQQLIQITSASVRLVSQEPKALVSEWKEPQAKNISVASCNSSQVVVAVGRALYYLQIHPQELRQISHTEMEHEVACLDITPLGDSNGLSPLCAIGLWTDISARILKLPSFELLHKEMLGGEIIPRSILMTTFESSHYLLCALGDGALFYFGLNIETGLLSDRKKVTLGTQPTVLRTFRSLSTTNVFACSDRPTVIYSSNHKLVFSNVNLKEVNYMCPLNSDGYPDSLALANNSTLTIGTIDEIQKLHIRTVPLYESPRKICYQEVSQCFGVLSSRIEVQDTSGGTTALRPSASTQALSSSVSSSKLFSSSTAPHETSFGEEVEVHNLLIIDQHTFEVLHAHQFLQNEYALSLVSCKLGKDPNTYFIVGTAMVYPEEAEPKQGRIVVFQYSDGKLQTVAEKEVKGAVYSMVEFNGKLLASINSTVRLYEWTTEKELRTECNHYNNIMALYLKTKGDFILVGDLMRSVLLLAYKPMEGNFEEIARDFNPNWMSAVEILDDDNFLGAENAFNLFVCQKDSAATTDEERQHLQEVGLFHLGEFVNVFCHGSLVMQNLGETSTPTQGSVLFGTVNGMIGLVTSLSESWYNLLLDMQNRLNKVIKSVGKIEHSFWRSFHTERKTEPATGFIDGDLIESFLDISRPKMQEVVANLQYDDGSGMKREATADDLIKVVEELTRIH
Description: GSPT1 DiscoverX Degradation Assay.
Compounds were dispensed by an acoustic dispenser (ATS Acoustic Transfer System from EDC Biosystems) into a 384-well in a 10 pt dose response curve using 3 fold dilutions starting at 10 uM and going down to 0.0005 uM in DMSO. A DMSO control is added to the assay. […] Assay plates were incubated at 37° C. with 5% CO2 for twenty hours. After incubation, 25 μl of the InCELL Hunter™ Detection Reagent Working Solution (DiscoverX, cat #96-0002, Fremont, CA) was added to each well and incubated at room temperature for 30 minutes protected from light. After 30 minutes, luminescence was read on a PHERAstar luminometer (Cary, NC).
The minimum Y is reference to the Y constant. In the GSPT1 degradation assay, we use Ataluren® (luciferase inhibitor) as the control with a Y constant=0. The maximum limit is the Y max DMSO control. All percent of control GSPT1 degradation curves were processed and evaluated using Activity Base (IDBS).

| SMILES | GSPT1 Degradation Ymin |
| --- | --- |
| COc1cc(CN)ccc1COc1ccc(NC(=O)NCc2ccc3c(c2)CN(C2CCC(=O)NC2=O)C3=O)cc1 (centres unmarked) [Example 23, 1-(4-{[4-(aminomethyl)-2-methoxyphenyl]methoxy}phenyl)-3-{[2-(2,6-dioxopiperidin-3-yl)-1-oxo-2,3-dihydro-1H-isoindol-5-yl]methyl}urea] | 8.85 |
| NCc1ccc(COc2ccc(NC(=O)NCc3ccc4c(c3)CN(C3CCC(=O)NC3=O)C4=O)cc2F)cc1 (centres unmarked) [Example 18, 1-(4-{[4-(aminomethyl)phenyl]methoxy}-3-fluorophenyl)-3-{[2-(2,6-dioxopiperidin-3-yl)-1-oxo-2,3-dihydro-1H-isoindol-5-yl]methyl}urea] | 54.45 |
| C[C@]1(N2Cc3cc(CNC(=O)Nc4ccc(OCc5ccc(CN)cc5)cc4)ccc3C2=O)CCC(=O)NC1=O [Example 32, 1-(4-{[4-(aminomethyl)phenyl]methoxy}phenyl)-3-({2-[(3S)-3-methyl-2,6-dioxopiperidin-3-yl]-1-oxo-2,3-dihydro-1H-isoindol-5-yl}methyl)urea] | 22.76 |
| NCc1ccc(COc2ccc(NC(=O)NCc3ccc4c(c3)CN(C3CCC(=O)NC3=O)C4=O)cn2)cc1 (centres unmarked) [Example 20, 1-(6-{[4-(aminomethyl)phenyl]methoxy}pyridin-3-yl)-3-{[2-(2,6-dioxopiperidin-3-yl)-1-oxo-2,3-dihydro-1H-isoindol-5-yl]methyl}urea] | 7.50 |
| CC(C)c1cc(CN)ccc1COc1ccc(NC(=O)NCc2ccc3c(c2)CN(C2CCC(=O)NC2=O)C3=O)cc1 (centres unmarked) [Example 30, 1-(4-{[4-(aminomethyl)-2-i-propylphenyl]methoxy}phenyl)-3-{[2-(2,6-dioxopiperidin-3-yl)-1-oxo-2,3-dihydro-1H-isoindol-5-yl]methyl}urea] | 10.86 |
| Cc1cc(CN)ccc1COc1ccc(NC(=O)NCc2ccc3c(c2)CN(C2CCC(=O)NC2=O)C3=O)cc1 (centres unmarked) [Example 12, 1-(4-{[4-(aminomethyl)-2-methylphenyl]methoxy}phenyl)-3-{[2-(2,6-dioxopiperidin-3-yl)-1-oxo-2,3-dihydro-1H-isoindol-5-yl]methyl}urea] | 5.39 |
| O=C1CCC(N2Cc3cc(CNC(=O)Nc4ccc(OCc5ccccc5O)cc4)ccc3C2=O)C(=O)N1 (centres unmarked) [Example 9, 1-((2-(2,6-dioxopiperidin-3-yl)-1-oxoisoindolin-5-yl)methyl)-3-(4-((2-hydroxybenzyl)oxy)phenyl)urea] | 3.50 |
| NCc1ccc(COc2ccc(NC(=O)NCc3ccc4c(c3)CN(C3CCC(=O)NC3=O)C4=O)cc2)nn1 (centres unmarked) [Example 16, 1-(4-{[6-(aminomethyl)pyridazin-3-yl]methoxy}phenyl)-3-{[2-(2,6-dioxopiperidin-3-yl)-1-oxo-2,3-dihydro-1H-isoindol-5-yl]methyl}urea] | 12.67 |
